# Assay results taken from patent publication US10946024B2, “Method for treating cancer” (Epizyme, Inc., priority 2014, dated 2021).
# “Also recorded” adds a separate entry of the source.
# Key:
# [1] = test system: synovial sarcoma PDX (CTG-0771, CTG-0331); assay: Tumor volume in mice bearing patient-derived xenografts (PDX) of synovial sarcoma, 35 days; format: in vivo; details: oral 125, 250 or 500/400 mg/kg for 35 days
# Protocol: FIGS. 11A and 11C show mean in vivo tumor volumes for athymic nude mice bearing one of two different PDX of synovial sarcoma tumors. FIGS. 11B and 11D show percent survival for mice bearing a PDX. Mice were dosed with either vehicle (oral for 35 days), Compound A (oral: 125 mg/kg, 250 mg/kg, or 500/400 mg/kg for 35 days) or Doxorubicin (iv: 3 mg/kg, once a week for 3 weeks). FIGS. 11A and 11B show data from mice bearing PDX from high-grade spindle cell sarcoma. FIGS. 11C and 11D show data from mice bearing PDX.
# Immunocompromised female mice (Taconic; NCr nude) were implanted unilaterally in the flank region with tumor fragments (5 mm×5 mm×5 mm) harvested from donor animals, each implanted from a specific passage lot (CTG-0331 and CTG-0771 at P4). When tumors reached approximately 100-300 mm^3, animals were matched by tumor volume into treatment and control groups and dosing initiated. Vehicle (0.5% NaCMC plus 0.1% Tween 80 in water) or Compound A (500 mg/kg for CTG-0331 and 500 mg/kg decreased to 400 mg/kg on Day 17 for CTG-0771) was administered orally BID at a dose volume of 10 μL/g for 35 days. Tumor size was measured twice weekly. On Day 35, up to 5 mice with the largest tumor burden were euthanized for tumor collection 3 hours after final dose, and flash frozen. […]
# HS-SY-II cells = assay: Adherent cell line long-term (14-day) proliferation assay, CellTiter-Glo; format: cell-based, human; details: 14-day long-term proliferation assay
# Protocol: (§1) 96-well plating for 7 day assay: For each adherent cell line, plated cells in a volume of 100 μL in 96-well plates, to be treated in triplicate, either in the evening (to treat with compound the following day) or in morning (to treat with compound in the evening), to allow cells to attach to plates before compound treatment.
# (§2) 6-well plates to be split for 7-14 day assay: Plated 2 mL of cells at the correct density in each well of the 6-well plate. Calculated the correct density from the 96-well plate growth curve by multiplying the 96-well density by 30. The factor 30 came from growth area of the 6-well plate divided by the growth area of the 96-well plate (9.5 cm^2/0.32 cm^2=29.7, rounded up to 30), which corresponds to 30-fold more surface area in a 6-well vs. a 96-well plate.
# (§3) Day 0: Treated with compound or DMSO by removing media and adding back either 100 μL (for 96-well plate) or 2 mL (for 6-well plate) media with the correct dilutions of compound/DMSO. Table 1 includes an example of 96-well plate map. Plates were incubated for 96 hours.
# (§4) Read one 96-well plate with CellTiter-Glo® for a Day 0 reading (media change not necessary for this plate).
# (§5) Day 4: Read one 96-well plate with CellTiter-Glo® for a Day 4 reading (media change not necessary for this plate before reading). Replaced media with fresh media containing compound on Day 4 in 96-well plates and 6-well plates.
# (§6) Day 7: read final 96-well plate with CellTiter-Glo®.
# (§7) Counted individual wells of 6-well plates, and replated cells to initial plating density in 96-well plates, as described above.
# (§8) Repeated steps for Days 0-7 for Days 7-14 of the proliferation assay.
# (§9) Particularly, approximately 12 hours before compound treatment, HS-SY-II or SW982 cells were plated at the density of 24,000 cells/well and 7,500 cells/well, respectively in 6-well plates. On day 0, cells were treated with either DMSO or compound starting at 10 μmol/L and decreasing in fourfold dilutions. On day 7, the cells in 6-well plates were trypsinized, counted by TC10 automated cell counter (Bio-Rad, Richmond, Calif.) and replated at the density of 800 cells/well and 250 cells/well for HS-SY-II and SW982, respectively in 96-well plates in triplicate. The cells were allowed to adhere to the plate overnight, and treated with either DMSO or compound as on Day 0. On days 0, 7, 11, and 14, cell viability was determined by CellTiter-Glo® Luminescent Cell Viability Assay (Promega) with EnVision 2103 Multilabel Reader (Perkin-Elmer, Wellesley, Mass.). Compound/media was changed with new one on Day 4 and 11. The ratios of the measured values on Days 7, 11, and 14 to that of day 7 were used to plot proliferation from day 7 to day 14, and to calculate the IC50 values on Day 14. […]
# SW982 cells = assay: as above; format: cell-based, human; details: SW982, 14-day long-term proliferation assay
# Protocol: as §1, §2, §3, §4, §5, §6, §7, §8, §9
# [2] = test system: ATF3, EGR1, CDKN2A expression in HS-SY-II cells; assay: Gene expression changes in vitro by RT-PCR, normalized to GAPDH; format: cell-based, human; design: key to ATF3 expression change, significance 0 uM vs. / EGR1 expression change, significance 0 uM vs. / CDKN2A expression change, significance 0 uM vs.: *: Asterisks mean significant changes compared to levels of 0 μM-treated groups.; **: Asterisks mean significant changes compared to levels of 0 μM-treated groups.; ***: Asterisks mean significant changes compared to levels of 0 μM-treated groups.; ****: Asterisks mean significant changes compared to levels of 0 μM-treated groups
# Protocol: HS-SY-II and SW982 cells were treated with EZH2 inhibitors (Compound A or EPZ-011989) and collected at the indicated time points. Total RNA isolation and cDNA synthesis were performed using the TaqMan Gene Expression Cells-to-CT kit (4399002, Life technologies) according to the manufacturer's protocol. ATF3, EGR1, CDKN2A and GAPDH expression were analyzed by using the TaqMan Gene Expression Assays (Life technologies, 4331182) and the TaqMan Probes (Hs00231069_m1, Hs00152928_m1, Hs00233365_m1, and Hs99999905_m1, respectively).
structure (smiles),measurement,setting,value
CCN(c1cc(-c2ccc(CN3CCOCC3)cc2)cc(C(=O)NCc2c(C)cc(C)[nH]c2=O)c1C)C1CCOCC1 [Compound A],tumor volume,[1],dose-related tumor volume decrease
same,sensitivity of cell proliferation,HS-SY-II cells,highly sensitive; also recorded: high sensitivity
same,sensitivity of cell proliferation,SW982 cells,are not; also recorded: did not; also recorded: not sensitive
same,ATF3 and EGR1 expression,[2]; HS-SY-II in vitro culture,upregulated
same,CDKN2A expression,[2]; HS-SY-II in vitro culture,Dose- and time-dependent CDKN2A upregulation
same,"CDKN2A expression change, significance 0 uM vs.","[2]; HS-SY-II, 1 uM, day 2",**
same,"ATF3 expression change, significance 0 uM vs.","[2]; HS-SY-II, 1 uM, day 4",*
same,"CDKN2A expression change, significance 0 uM vs.","[2]; HS-SY-II, 1 uM, day 4",****
same,"ATF3 expression change, significance 0 uM vs.","[2]; HS-SY-II, 1 uM, day 7",**
same,"CDKN2A expression change, significance 0 uM vs.","[2]; HS-SY-II, 1 uM, day 7",****
same,"EGR1 expression change, significance 0 uM vs.","[2]; HS-SY-II, 1 uM, day 7",**
